Data on seven compounds can be found in patent EP4772509A1, “KINESIN KIF18A INHIBITOR, AND APPLICATION THEREOF” (Shanghai Apeiron Therapeutics Company Limited, priority 2023, dated 2025).

For one experiment, the system named is HT29 cells. In words: CyQuant cell proliferation activity test. The format is cell-based. Conditions: HT29 at 2000 cells per well, 3 days, 0.2% DMSO, XLFIT. The method in brief: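 Cells seeded at 2000/well in RPMI-1640 with 10% FBS, left overnight, then exposed 3 days at 37 °C, 5% CO2 to a 9-point 3-fold series from 3000 nM (0.2% DMSO). CyQuant signal read after 1 h; IC50 from curve fit.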

The next experiment has as its system OVCAR3 cells. In words: Cell proliferation activity test (CyQUANT Direct). It is filed as cell-based. To be noted: 3 days, 0.2% DMSO, CyQUANT fluorescence. In short, it runs like this:
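OVCAR3 cells in RPMI-1640 with 10% FBS were seeded, then treated overnight later with compound at final 0–10 µM (0.2% DMSO) for 3 days at 37°C, 5% CO2. Proliferation was read as CyQUANT Direct fluorescence after 60 min at 37°C.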

Experiment [1] addresses T1, Human KIF18A (amino acid sequence 1-417) (Homo sapiens, UniProt Q8NI77).
T1 construct: purchased Viva Biotech (Shanghai) Ltd
T1 sequence (Q8NI77 1-417): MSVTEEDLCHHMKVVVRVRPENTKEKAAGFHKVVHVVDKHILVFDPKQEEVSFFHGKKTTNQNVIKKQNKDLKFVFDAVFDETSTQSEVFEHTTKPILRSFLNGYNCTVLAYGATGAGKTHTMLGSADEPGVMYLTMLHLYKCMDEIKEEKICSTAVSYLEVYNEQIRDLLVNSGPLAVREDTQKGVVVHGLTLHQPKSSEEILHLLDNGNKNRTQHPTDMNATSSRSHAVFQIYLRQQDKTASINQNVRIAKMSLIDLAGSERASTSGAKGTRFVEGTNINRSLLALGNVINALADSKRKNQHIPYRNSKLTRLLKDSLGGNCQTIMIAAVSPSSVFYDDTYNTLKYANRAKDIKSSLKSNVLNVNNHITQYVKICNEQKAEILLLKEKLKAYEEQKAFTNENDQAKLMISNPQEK
The experiment in a line: Enzymatic activity test (ADP-Glo, microtubule-stimulated ATPase). The format is biochemical. Conditions: 60 µg/mL microtubules, 25 µM ATP, 2.5 nM KIF18A protein, 120 min at ambient temperature, chemiluminescence; read-out: KIF18A IC50. In short, it runs like this: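 Compounds (0-10 µM final, from 10 mM DMSO stock) were incubated 120 min at room temperature with 2.5 nM KIF18A 1-417, 25 µM ATP and 60 µg/mL microtubules. ATPase output was measured as ADP via ADP-Glo luminescence.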
Background: ADP-Glo first removes unused ATP, then detects ADP through luciferase.

Read-outs that look alike come from different tables or passages of the source.

Usually IC50 stands for the midpoint of a concentration-inhibition curve. Take `Cc1cc2nc(n1)N1CCC(F)(F)C(/C=C\CC3CCN(CC3)c3cc(NS(=O)(=O)CCO)c4c(c3C(=O)N2)OCC4=O)C1` (stereo not drawn) [Example 14B, N-(1^4,1^4-difluoro-2^6-methyl-5^3,4-dioxo-5^2,5-dihydro-3-aza-2(2,4)-pyrimidin-1(1,3),6(1,4)-dipiperidin-5(7,6)-benzofurancyclononane-8-en-5^4-yl)-2-hydroxyethane-1-sulfonamide]: the IC50 in the experiment on HT29 cells (Homo sapiens, HT-29, 72 h) was > 3000 nM; with OVCAR3 cells (Homo sapiens, OVCAR-3, 72 h), > 3000 nM; in experiment [1], 307 nM.
With `COc1cc2nc(n1)N1CCC(F)(F)C(CCCc3ccc(cc3)-c3cc(NS(=O)(=O)CCO)ccc3C(=O)N2)C1` (single isomer, unassigned) [Example 51B, N-(1^4,1^4-difluoro-2^6-methoxy-4-oxo-3-aza-2(2,4)-pyrimidin-1(1,3)-piperidin-5(1,2),6(1,4)-dibenzylcyclononane-5^4-yl)-2-hydroxyethane-1-sulfonamide], the values for the IC50 (in the experiment with HT29 cells (read-out: HT-29 IC50); with OVCAR3 cells; in experiment [1]) were 74 nM, 72 nM and 144 nM, respectively.
For `Cc1cc2nc(n1)N1CCC(F)(F)C(/C=C/CC3CCN(CC3)c3cc(NS(=O)(=O)CCO)c4ccccc4c3C(=O)N2)C1` (single isomer, unassigned) [Example 1C, (trans)-N-(1^4,1^4-difluoro-2^6-methyl-4-oxo-3-aza-2(2,4)-pyrimidin-1(1,3),6(1,4)-dipiperidin-5(1,2)-naphthacyclonon-8-en-5 ^4-yl)-2-hydroxyethane-1-sulfonamide], the results for the IC50 (with HT29 cells (read-out: HT-29 IC50); with OVCAR3 cells; in experiment [1]) were 1020 nM, 1020 nM and 1060 nM, respectively.
Consider “N-((3^4Z,7E)-1^4,1^4-difluoro-2^6-methyl-3^1H-2(2,4)-pyrimidin-1(1,3),5(1,4)-dipiperidin-3(4,1)-triazole-4(1,2)-benzocyclooct-7 -en-4^4-yl)-2-hydroxyethane-1-sulfonamide [Example 81C]”, for which the IC50 in the experiment on HT29 cells (read-out: HT-29 IC50) was found to be 671 nM; in the experiment on OVCAR3 cells, 500 nM; in experiment [1] it was 521 nM.
`Cc1cc2nc(n1)N1CCC(F)(F)C(/C=C/CC3CCN(CC3)c3cc(NS(=O)(=O)CCO)c4c(c3C(=O)N2)CCC4(F)F)C1` (stereo not drawn) [Example 15, 2-Hydroxy-N-(1^4,1^4,5^1,5^1-tetrafluoro-2^1-methyl4-dioxo-5^2,5^1-dihydro-5^1H-3-aza-2(2,4)-pyrimidin-1(1,3),6(1,4)-dipiperidin-5(4,5)-benzofurancyclononane-8-en-5^7-yl)-ethane-1-sulfonamide]: the IC50 was 46 nM in the experiment with HT29 cells (Homo sapiens, HT-29, 72 h); 24 nM in the experiment with OVCAR3 cells (Homo sapiens, OVCAR-3, 72 h); 358 nM in experiment [1].
In the case of “N-((3^4Z,7E)-1^4,1^4-difluoro-2^6-methyl-3^1H-2(2,4)-pyrimidin-1(1,3),5(1,4)-dipiperidin-3(4,1)-triazole-4(1,2)-benzocyclooct-7 -en-4^4-yl)-2-hydroxyethane-1-sulfonamide [Example 81D]”, the values for the IC50 (with HT29 cells (read-out: HT-29 IC50); with OVCAR3 cells; in experiment [1]) were 29 nM, 31 nM and 132 nM, respectively.
For the compound “2-Hydroxy-N-(1^4,1^4,5^1,5^1-tetrafluoro-2^6-methyl-4-dioxo-5^2,5^3-dihydro-5^1H-3-aza-2(2,4)-pyrimidin-1(1,3),6(1,4)-dipipe ridin-5(4,5)-benzofurancyclononane-8-en-5^7-yl)-methanesulfonamide [Example 21]”, the IC50 in the experiment with HT29 cells (read-out: HT-29 IC50) amounted to 85 nM; in the experiment with OVCAR3 cells, 78 nM; in experiment [1], 450 nM.
